Reference: article PMC5601737, “Potential independent action of sigma receptor ligands through inhibition of the Kv2.1 channel” (Oncotarget, 2017)

Target: T1, Kv2.1 (Rattus norvegicus, UniProt P15387)
T1 construct: gene Kcnb1
T1 sequence (P15387 1-857): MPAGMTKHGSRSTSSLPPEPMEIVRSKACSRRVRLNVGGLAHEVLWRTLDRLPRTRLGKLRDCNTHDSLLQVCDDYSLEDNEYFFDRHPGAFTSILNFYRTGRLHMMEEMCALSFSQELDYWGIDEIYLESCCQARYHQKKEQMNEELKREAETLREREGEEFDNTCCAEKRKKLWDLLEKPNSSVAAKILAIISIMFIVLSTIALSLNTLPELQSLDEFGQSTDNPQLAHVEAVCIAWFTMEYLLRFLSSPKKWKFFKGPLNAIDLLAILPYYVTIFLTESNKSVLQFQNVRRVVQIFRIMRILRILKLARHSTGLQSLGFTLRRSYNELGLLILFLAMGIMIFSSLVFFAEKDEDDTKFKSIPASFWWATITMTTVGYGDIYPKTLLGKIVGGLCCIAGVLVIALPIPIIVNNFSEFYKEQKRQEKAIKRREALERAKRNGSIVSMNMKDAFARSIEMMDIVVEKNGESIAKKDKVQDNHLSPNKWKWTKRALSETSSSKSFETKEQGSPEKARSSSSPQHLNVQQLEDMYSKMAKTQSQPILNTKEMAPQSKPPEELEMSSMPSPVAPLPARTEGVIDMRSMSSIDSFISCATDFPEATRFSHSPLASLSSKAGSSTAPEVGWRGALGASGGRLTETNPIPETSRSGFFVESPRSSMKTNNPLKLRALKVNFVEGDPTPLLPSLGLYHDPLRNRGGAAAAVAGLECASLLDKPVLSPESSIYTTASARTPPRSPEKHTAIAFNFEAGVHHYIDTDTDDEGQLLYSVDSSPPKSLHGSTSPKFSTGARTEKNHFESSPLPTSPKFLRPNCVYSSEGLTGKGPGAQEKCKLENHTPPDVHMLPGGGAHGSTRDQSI
Test: whole-cell patch clamp, HEK293 stably expressing Kv2.[…], sigma-1 receptor knockout; […] inhibition at […]
Assay type: cell-based

COc1cccc2c1CCCC2CCCN1CCN(C2CCCCC2)CC1 (stereo not shown) [PB28]
inhibition at 10 µM: 65%
